Patent publication US20070219210A1, “Amidopyrazole Derivative” (Daiichi Pharmaceutical Co., LTD., priority 2003, published 2007)
pIC50: −log10 of the molar value.

Key:
[1] = test system: collagen-induced platelet coagulation; test: Inhibitory effect on collagen-induced platelet coagulation in platelet rich plasma; format: cell-based; settings: human platelet rich plasma, 37° C., coagulation induced with collagen; read-out: Inhibition of collagen-induced platelet coagulation, IC50
Procedure: Human blood was collected by using 1/10 volume of 3.13% sodium citrate as an anticoagulant, and the blood was centrifuged at 180 g for 10 minutes to separate platelet rich plasma (PRP), which was the upper layer. After collecting the upper layer PRP, the remaining lower layer was centrifuged at 1600 g for 10 minutes, and platelet poor plasma (PPP) in the upper layer was collected. 1 μl solution of the compound of the Examples was added to 200 μl of the PRP, and after allowing the sample to stand at 37° C. for 2 minutes, 2 μl of collagen was added in order to induce platelet coagulation. Platelet coagulation rate was measured with PAM-12C (SSR Engineering).

Cyclooxygenase-1 (COX-1) = target: T1, Cyclooxygenase-1 (COX-1) (Ovis aries, UniProt P05979); test: COX Inhibitor Screening Assay Kit (Cayman), PGF2α by ELISA, COX-1; format: biochemical; settings: compound at 50 μm; relative to PGF2α produced without compound (100%)
T1 construct: purchased Cayman Chemical Company 560101
T1 sequence (P05979 25-600): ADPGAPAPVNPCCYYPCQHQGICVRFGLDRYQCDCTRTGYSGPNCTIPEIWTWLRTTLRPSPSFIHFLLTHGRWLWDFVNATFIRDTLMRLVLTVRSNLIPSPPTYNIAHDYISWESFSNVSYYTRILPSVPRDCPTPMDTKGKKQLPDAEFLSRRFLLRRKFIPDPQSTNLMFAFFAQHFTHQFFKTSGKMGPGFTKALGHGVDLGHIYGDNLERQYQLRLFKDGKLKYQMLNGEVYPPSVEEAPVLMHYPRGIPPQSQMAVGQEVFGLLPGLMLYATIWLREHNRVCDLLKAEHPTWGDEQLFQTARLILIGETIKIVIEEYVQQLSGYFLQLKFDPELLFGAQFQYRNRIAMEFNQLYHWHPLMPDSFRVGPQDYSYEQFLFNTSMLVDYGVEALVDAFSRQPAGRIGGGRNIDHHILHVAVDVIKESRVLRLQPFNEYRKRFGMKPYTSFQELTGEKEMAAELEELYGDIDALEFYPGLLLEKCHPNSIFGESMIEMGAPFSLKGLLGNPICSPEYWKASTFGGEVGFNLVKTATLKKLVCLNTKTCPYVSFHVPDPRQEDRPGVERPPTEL
Procedure: Inhibitory activity against COX-1 and COX-2 of the compounds produced in the Examples was measured by using COX Inhibitor Screening Assay Kit (Catalog Nos. 560101 and 560121) purchased from Cayman Chemical Company.
Before starting the measurement, reaction buffer, heme, arachidonic acid, SnCl2, EIA buffer, washing buffer, prostaglandin (PG) screening EIA standard, PG screening acetylcholine esterase (AchE), tracer (chromogenic enzyme HRP conjugate), and PC screening EIA antiserum were prepared ready for use.
The reaction mixture containing the compound of the Examples (50 μM) and COX-1 or COX-2 was allowed to stand at 37° C. or 10 minutes, and after adding 10 μl of arachidonic acid, the solution was again allowed to stand at 37° C. for 2 minutes. After the reaction, the reaction was terminated by adding 50 μl of 1N-hydrochloric acid, and 100 μl solution of SnCl2 was added, and the reaction mixture was allowed to stand at room temperature for 5 minutes.
50 μl of antiserum (rabbit anti-PGF2α antibody) was placed in the wells of 96 well plate that had been coated with mouse anti-rabbit IgG and 50 μl of the 2000-fold diluted PGF2α-containing liquid described above and 50 μl of AchE tracer were added to the well in this order, and the mixture was allowed to stand at room temperature for 18 hours. The wells were washed 5 times with the washing buffer to remove an excessive AchE tracer, and 200 μl of Ellman reagent was added. After leaving the plate in a dark room for 60 minutes, absorbance was measured at 405 nm.
A calibration curve was obtained by using the PG screening EIA standard, and the amount of PGF2α produced was determined from the absorption. Inhibitory rate at 50 μM of the compound of the Examples against COX-1 or COX-2 was calculated.
It is to be noted that the inhibitory rate was calculated in relation to the amount of the PGF2α produced by the reaction liquid free from the compounds of the Examples, which was taken 100%.

Row | Compound | pIC50 [1] | Inhibitory effect against COX-1 at 50 μm (% inhibition) (Cyclooxygenase-1 (COX-1))
1 | CC(C)(C)NC(=O)c1cc(-c2ccc(CN)cn2)n(-c2ccccc2)n1 [Example 74, N-tert-Butyl-5-(5-aminomethyl-2-pyridyl)-1-phenyl-1H-pyrazole-3-carboxamide] | 6.77 | 38.8 % inhibition
2 | CC(C)(CF)NC(=O)c1cc(-c2cnc(N)cn2)n(-c2cccnc2)n1 [Example 113, N-(2-Fluoro-1,1-dimethylethyl)-5-(5-amino-2-pyrazinyl)-1-(3-pyridyl)-1H-pyrazole-3-carboxamide] | 6.82 | −2.8 % inhibition
3 | COC(=O)NCc1ccc(-c2cc(C(=O)NC(C)(C)C)nn2-c2cccnc2)nc1 [Example 139, Methyl {6-[5-(N-tert-butylcarbamoyl)-2-(3-pyridyl)-2H-pyrazol-3-yl]-3-pyridylmethyl}carbamate] | 7.15 | −25.8 % inhibition
4 | C#Cc1ccc(-c2cc(C(=O)NC(C)(C)CF)nn2-c2cccnc2)nc1 [Example 132, 5-(5-Ethynyl-2-pyridyl)-N-(2-fluoro-1,1-dimethylethyl)-1-(3-pyridyl)-1H-pyrazole-3-carboxamide] | 7.49 | –
5 | CC(C)(C)NC(=O)c1cc(-c2ccc(F)cn2)n(-c2cccnc2)n1 [Example 85, N-tert-Butyl-5-(5-fluoro-2-pyridyl)-1-(3-pyridyl)-1H-pyrazole-3-carboxamide] | 7.27 | –
6 | Cc1ccc(-n2nc(C(=O)NC(C)(C)C)cc2-c2cn(C)cn2)cn1 [Example 122, N-tert-Butyl-5-(1-methyl-1H-imidazol-4-yl)-1-(6-methyl-3-pyridyl)-1H-pyrazole-3-carboxamide] | 7.00 | –
7 | CC(C)(C)NC(=O)c1cc(-c2ccc(CNS(C)(=O)=O)cn2)n(-c2cccnc2)n1 [Example 137, N-tert-Butyl-5-[5-(methanesulfonylamino)methyl-2-pyridyl]-1-(3-pyridyl)-1H-pyrazole-3-carboxamide] | 6.64 | −5.1 % inhibition
8 | COc1ccc(-n2nc(C(=O)N(C)C)cc2-c2ccn(C)c2)cn1 [Example 116, N,N-Dimethyl-1-(6-methoxy-3-pyridyl)-5-(1-methyl-1H-pyrrol-3-yl)-1H-pyrazole-3-carboxamide] | 7.70 | –
9 | Cc1ccc(-c2cc(C(=O)NC(C)(C)CO)nn2-c2cccnc2)nc1 [Example 152, N-(2-Hydroxy-1,1-dimethylethyl)-5-(5-methyl-2-pyridyl)-1-(3-pyridyl)-1H-pyrazole-3-carboxamide] | 6.96 | −8.7 % inhibition
10 | CC(C)(C)NC(=O)c1cc(-c2ccc(N)cn2)n(-c2cccnc2)n1 [Example 71] | 7.64 | 7.9 % inhibition
11 | CC(C)(CF)NC(=O)c1cc(-c2ccc(N)cn2)n(-c2cccnc2)n1 [Example 98, N-(2-Fluoro-1,1-dimethylethyl)-5-(5-amino-2-pyridyl)-1(3-pyridyl)-1H-pyrazole-3-carboxamide] | 7.37 | −20.4 % inhibition
12 | CC(C)(C)NC(=O)c1cc(-c2cnc(N)cn2)n(-c2cccnc2)n1 [Example 95, N-tert-Butyl-5-(5-amino-2-pyrazinyl)-1-(3-pyridyl)-1H-pyrazole-3-carboxamide] | 6.80 | −9.1 % inhibition
13 | CC(=O)NCc1ccc(-c2cc(C(=O)NC(C)(C)C)nn2-c2cccnc2)nc1 [Example 138, N-tert-Butyl-5-[5-(acetylamino)methyl-2-pyridyl]-1-(3-pyridyl)-1H-pyrazole-3-carboxamide] | 6.80 | 0.7 % inhibition
